Experiment [1] relates to Spontaneously hypertensive rats (SHR). Put plainly: Acute efficacy in spontaneously hypertensive rats (SHR): telemetry blood pressure lowering after a single oral dose. It counts as in vivo, rat. In a few lines:
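Male SHR carrying aortic telemetry implants (14-day recovery) received a single oral gavage of compound or vehicle (10% transcutol/20% Cremophor/70% water). Conscious blood pressure was sampled 30 s every 10 min and averaged hourly; change was taken against the prior-day vehicle baseline, reported as maximum peak SBP decrease at a given PO dose (mpk).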

Another experiment has as its target T1, sGC α1/β1 heterodimer (Homo sapiens, UniProt Q02108+Q02153).
T1 construct: expressed in transfected cells; host or cells: CHO-K1 (clone #7, CHO-K1/sGC)
T1 sequence (Q02108 1-690): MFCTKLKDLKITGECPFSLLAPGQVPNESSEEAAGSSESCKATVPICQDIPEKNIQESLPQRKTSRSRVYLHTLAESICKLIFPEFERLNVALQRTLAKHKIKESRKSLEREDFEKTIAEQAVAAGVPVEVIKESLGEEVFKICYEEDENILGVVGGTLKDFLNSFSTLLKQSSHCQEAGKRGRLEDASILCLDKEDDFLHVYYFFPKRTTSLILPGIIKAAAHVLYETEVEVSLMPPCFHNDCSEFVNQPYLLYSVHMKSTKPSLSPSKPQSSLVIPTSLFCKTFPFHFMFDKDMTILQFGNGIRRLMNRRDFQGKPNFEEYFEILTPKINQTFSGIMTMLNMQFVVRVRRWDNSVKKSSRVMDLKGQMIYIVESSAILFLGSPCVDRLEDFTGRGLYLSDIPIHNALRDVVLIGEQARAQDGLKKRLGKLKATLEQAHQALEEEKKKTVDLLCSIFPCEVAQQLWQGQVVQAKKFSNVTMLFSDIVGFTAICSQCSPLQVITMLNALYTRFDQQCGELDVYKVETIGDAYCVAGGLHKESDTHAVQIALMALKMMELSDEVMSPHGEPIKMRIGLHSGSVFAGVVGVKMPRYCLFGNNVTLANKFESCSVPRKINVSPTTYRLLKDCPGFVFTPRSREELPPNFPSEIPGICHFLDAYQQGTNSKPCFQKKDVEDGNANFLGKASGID
T1 sequence (Q02153 1-619): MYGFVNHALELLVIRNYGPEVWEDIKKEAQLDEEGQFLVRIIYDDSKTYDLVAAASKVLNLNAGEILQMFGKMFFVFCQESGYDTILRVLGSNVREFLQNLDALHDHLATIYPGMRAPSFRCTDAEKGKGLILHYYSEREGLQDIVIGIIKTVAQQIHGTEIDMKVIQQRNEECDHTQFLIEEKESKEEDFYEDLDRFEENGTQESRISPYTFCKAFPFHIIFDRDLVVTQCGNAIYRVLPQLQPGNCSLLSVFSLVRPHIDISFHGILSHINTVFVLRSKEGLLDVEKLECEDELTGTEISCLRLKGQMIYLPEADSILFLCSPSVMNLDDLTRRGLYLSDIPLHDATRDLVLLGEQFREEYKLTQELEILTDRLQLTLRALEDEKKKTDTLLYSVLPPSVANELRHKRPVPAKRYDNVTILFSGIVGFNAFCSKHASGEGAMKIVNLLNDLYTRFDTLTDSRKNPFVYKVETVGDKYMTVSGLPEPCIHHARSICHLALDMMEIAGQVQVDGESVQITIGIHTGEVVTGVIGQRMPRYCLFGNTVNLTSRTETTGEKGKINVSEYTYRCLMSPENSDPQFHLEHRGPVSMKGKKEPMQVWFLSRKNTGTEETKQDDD
The experiment in a line: Cell-based sGC functional assay (CASA assay): cGMP generation in CHO-K1/sGC cells, HTRF detection. The following applies: for Emax: CHO-K1, percent activation relative to standard Compound A in CHO-K1/sGC cells, read-out: % Act.; for EC50: inflection point (IP) of cGMP generation in CHO-K1/sGC cells, 4P fit, activity expressed as percentage of Compound A. The procedure, abridged: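 Stable CHO-K1/sGC cells in EBSS buffer with 5 mM MgCl2, 0.05% BSA and 0.5 mM IBMX were incubated with compound (2.5% DMSO final) ±1 μM DETA-NO for 1 hr at 37° C. cGMP was measured by HTRF. Activation is expressed as % of reference HDA Compound A maximum, with IP and max fold induction from a 4P fit.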
Background: TR-FRET usually uses a lanthanide donor and a delayed reading to cut background.

For orientation: EC50 means the midpoint of the concentration-response curve. Consider `CCc1cn2cc(-c3nc(N)c4c(n3)NC(=O)C4(C)c3ccc(F)cc3)nc(CCC(F)(F)C(F)(F)F)c2n1` (stereo not drawn) [Example 159A, 4-amino-2-(2-ethyl-8-(3,3,4,4,4-pentafluorobutyl)imidazo [1,2-a]pyrazin-6-yl)-5-(4-fluorophenyl)-5-methyl-5H-pyrrolo[2,3-d]pyrimidin-6(7H)-one], for which the “Maximum peak decrease of systolic blood pressure (SBP) in SHR, Cat.” value (from here on “Maximum peak decrease”) in experiment [1] (P.O. 3.0 mpk) was “A (Category A=SBP in SHRs<20 mmHg)”. Further, on sGC α1/β1 heterodimer, the Emax worked out at 103% and the response was half-maximal at 552 nM (EC50).

For `CCCCc1nc(-c2nc(N)c3c(n2)NC(=O)C3(C)c2ccc(C(F)(F)F)cn2)cn2cc(C)nc12` (stereo not drawn) [Example 166B, 4-amino-2-(8-butyl-2-methylimidazo[1,2-a]pyrazin-6-yl)-5-methyl-5-(5-(trifluoromethyl)pyridin-2-yl)-5H-pyrrolo[2,3-d]pyrimidin-6(7H)-one], in experiment [1] (P.O. 1.0 mpk), the “Maximum peak decrease” value is on record as “A (Category A=SBP in SHRs<20 mmHg)”. Also, at sGC α1/β1 heterodimer, the Emax came to 94% and the half-maximal effective concentration (EC50) was 120 nM.

For `CCCCc1nc(-c2nc(N)c3c(n2)NC(=O)C3(C)c2ccc(Cl)cn2)cn2cc(C)nc12` (stereo not drawn) [Example 168A, 4-amino-2-(8-butyl-2-methylimidazo[1,2-a]pyrazin-6-yl)-5-(5-chloropyridin-2-yl)-5-methyl-5H-pyrrolo[2,3-d]pyrimidin-6(7H)-one], the “Maximum peak decrease” value in experiment [1] (P.O. 1.0 mpk) is “B (Category B=SBP in SHRs 20-40 mmHg)”. Also, at sGC α1/β1 heterodimer, the Emax turned out to be 97% and the response was half-maximal at 150 nM (EC50).

`Cc1cn2cc(-c3nc(N)c4c(n3)NC(=O)C4(C)c3ccc(F)cc3)nc(CCC(F)(F)C(F)(F)F)c2n1` (stereo not drawn) [Example 170A, 4-amino-5-(4-fluorophenyl)-5-methyl-2-(2-methyl-8-(3,3,4,4,4-pentafluorobutyl)imidazo [1,2-a]pyrazin-6-yl)-5H-pyrrolo[2,3-d]pyrimidin-6(7H)-one]: the “Maximum peak decrease” value in experiment [1] (P.O. 1.0 mpk) is “B (Category B=SBP in SHRs 20-40 mmHg)”. Moreover, on sGC α1/β1 heterodimer, the Emax stood at 104% and the EC50 turned out to be 57 nM.

On to `Cc1cnc2c(CCC(F)(F)C(F)(F)F)nc(-c3nc(N)c4c(n3)NC(=O)C4(C)c3ccc(F)cc3)cn12` (stereo not drawn) [Example 171A, 4-amino-5-(4-fluorophenyl)-5-methyl-2-(3-methyl-8-(3,3,4,4,4-pentafluorobutyl)imidazo [1,2-a]pyrazin-6-yl)-5H-pyrrolo[2,3-d]pyrimidin-6(7H)-one], for which the “Maximum peak decrease” value in experiment [1] (P.O. 1.0 mpk) is “B (Category B=SBP in SHRs 20-40 mmHg)”. In addition, at sGC α1/β1 heterodimer, the Emax amounted to 126% and the response was half-maximal at 80 nM (EC50).

`Cc1cn2cc(-c3nc(N)c4c(n3)NC(=O)C4(C)c3ccc(F)cn3)nc(CCC(F)(F)C(F)(F)F)c2n1` (stereo not drawn) [Example 172A, 4-amino-5-(5-fluoropyridin-2-yl)-5-methyl-2-(2-methyl-8-(3,3,4,4,4-pentafluorobutyl)imidazo [1,2-a]pyrazin-6-yl)-5H-pyrrolo[2,3-d]pyrimidin-6(7H)-one]: in experiment [1] (P.O. 3.0 mpk), the “Maximum peak decrease” value is “B (Category B=SBP in SHRs 20-40 mmHg)”. Also, on sGC α1/β1 heterodimer, the Emax was determined as 124% and a half-maximal effect (EC50) was put at 637 nM.

With `Cc1cnc2c(CCC(F)(F)C(F)(F)F)nc(-c3nc(N)c4c(n3)NC(=O)C4(C)c3ccc(F)cn3)cn12` (stereo not drawn) [Example 173B, 4-amino-5-(5-fluoropyridin-2-yl)-5-methyl-2-(3-methyl-8-(3,3,4,4,4-pentafluorobutyl)imidazo [1,2-a]pyrazin-6-yl)-5H-pyrrolo[2,3-d]pyrimidin-6(7H)-one], the “Maximum peak decrease” value in experiment [1] (P.O. 1.0 mpk) is “B (Category B=SBP in SHRs 20-40 mmHg)”. Moreover, at sGC α1/β1 heterodimer, the Emax stood at 92% and the EC50 is 156 nM.

As for `COc1cn2cc(-c3nc(N)c4c(n3)NC(=O)C4(C)c3ccc(F)cc3)nc(CCC(F)(F)C(F)(F)F)c2n1` (stereo not drawn) [Example 174A, 4-amino-5-(4-fluorophenyl)-2-(2-methoxy-8-(3,3,4,4,4-pentafluorobutyl)imidazo [1,2-a]pyrazin-6-yl)-5-methyl-5H-pyrrolo[2,3-d]pyrimidin-6(7H)-one], the “Maximum peak decrease” value in experiment [1] (P.O. 1.0 mpk) is “B (Category B=SBP in SHRs 20-40 mmHg)”. For the same compound, on sGC α1/β1 heterodimer, the Emax was determined as 139% and the EC50 amounted to 107 nM.

Regarding `COc1cn2cc(-c3nc(N)c4c(n3)NC(=O)C4(C)c3ccc(F)cn3)nc(CCC(F)(F)C(F)(F)F)c2n1` (stereo not drawn) [Example 175B, 4-amino-5-(5-fluoropyridin-2-yl)-2-(2-methoxy-8-(3,3,4,4,4-pentafluorobutyl)imidazo [1,2-a]pyrazin-6-yl)-5-methyl-5H-pyrrolo[2,3-d]pyrimidin-6(7H)-one], the “Maximum peak decrease” value in experiment [1] (P.O. 1.0 mpk) is given as “A (Category A=SBP in SHRs<20 mmHg)”. At sGC α1/β1 heterodimer, the Emax was determined as 88% and the EC50 amounted to 501 nM.

On to `COc1cn2cc(-c3nc(N)c4c(n3)NC(=O)C4(C)c3ccc(F)cc3)nc(CCCC(F)(F)F)c2n1` (stereo not drawn) [Example 176A, 4-amino-5-(4-fluorophenyl)-2-(2-methoxy-8-(4,4,4-trifluorobutyl)imidazo[1,2-a]pyrazin-6-yl)-5-methyl-5H-pyrrolo[2,3-d]pyrimidin-6(7H)-one], for which, in experiment [1] (P.O. 1.0 mpk), the “Maximum peak decrease” value was “B (Category B=SBP in SHRs 20-40 mmHg)”. In addition, at sGC α1/β1 heterodimer, the Emax is 107% and the midpoint of the response, the EC50, lay at 79 nM.

In the case of `CC1(c2ccc(Cl)c(F)c2)C(=O)Nc2nc(-c3cn4ccnc4c(CCC(F)(F)F)n3)nc(N)c21` (stereo not drawn) [Example 178B, 4-amino-5-(4-chloro-3-fluorophenyl)-5-methyl-2-(8-(3,3,3-trifluoropropyl)imidazo[1,2-a]pyrazin-6-yl)-5H-pyrrolo[2,3-d]pyrimidin-6(7H)-one], in experiment [1] (P.O. 0.3 mpk), the “Maximum peak decrease” value is given as “B (Category B=SBP in SHRs 20-40 mmHg)”. Further, at sGC α1/β1 heterodimer, the Emax was determined as 106% and the EC50 amounted to 17 nM.

In the case of `CC1(c2ccc(Cl)cc2F)C(=O)Nc2nc(-c3cn4ccnc4c(CCC(F)(F)F)n3)nc(N)c21` (stereo not drawn) [Example 179A, 4-amino-5-(4-chloro-2-fluorophenyl)-5-methyl-2-(8-(3,3,3-trifluoropropyl)imidazo[1,2-a]pyrazin-6-yl)-5H-pyrrolo[2,3-d]pyrimidin-6(7H)-one], the “Maximum peak decrease” value in experiment [1] (P.O. 1.0 mpk) is “C (Category C=SBP in SHRs>40 mmHg)”. For the same compound, at sGC α1/β1 heterodimer, the Emax came out at 129% and the midpoint of the response, the EC50, lay at 45 nM.

For `CC1(c2ccc(Br)cc2)C(=O)Nc2nc(-c3cn4ccnc4c(CCC(F)(F)F)n3)nc(N)c21` (stereo not drawn) [Example 181A, 4-amino-5-(4-bromophenyl)-5-methyl-2-(8-(3,3,3-trifluoropropyl)imidazo[1,2-a]pyrazin-6-yl)-5H-pyrrolo[2,3-d]pyrimidin-6(7H)-one], the “Maximum peak decrease” value in experiment [1] (P.O. 1.0 mpk) was “B (Category B=SBP in SHRs 20-40 mmHg)”. Further, at sGC α1/β1 heterodimer, the Emax was determined as 132% and it took 56 nM to reach a half-maximal effect (EC50).

Regarding `CC1(c2ccc(Cl)cc2)C(=O)Nc2nc(-c3cn4ccnc4c(CCC(F)(F)F)n3)nc(N)c21` (stereo not drawn) [Example 182A, 4-amino-5-(4-chlorophenyl)-5-methyl-2-(8-(3,3,3-trifluoropropyl)imidazo[1,2-a]pyrazin-6-yl)-5H-pyrrolo[2,3-d]pyrimidin-6(7H)-one], in experiment [1] (P.O. 1.0 mpk), the “Maximum peak decrease” value was “B (Category B=SBP in SHRs 20-40 mmHg)”. At sGC α1/β1 heterodimer, the Emax was found to be 120% and the EC50 came to 55 nM.

Source of the values: patent US9796733B2, “Imidazo-pyrazine derivatives useful as soluble guanylate cyclase activators” (Merck Sharp & Dohme Corp., priority 2014, dated 2017).
